Results reported in patent US20230150970A1, “AMINOPYRIMIDINE DERIVATIVES AND THEIR USE AS ARYL HYDROCARBON RECEPTOR MODULATORS” (DONG-A ST CO., LTD., priority 2020, published 2023).

target: T1, AhR (Homo sapiens, UniProt P35869); test: In Vitro Assay 1: XRE-luciferase reporter assay, antagonism in human cell line (HepG2); settings: Assay 1: AhR-Luc Human Antagonism (IC50, nM), unmarked values: kynurenine 200 μM, 6 hours
T1 sequence (P35869 11-848): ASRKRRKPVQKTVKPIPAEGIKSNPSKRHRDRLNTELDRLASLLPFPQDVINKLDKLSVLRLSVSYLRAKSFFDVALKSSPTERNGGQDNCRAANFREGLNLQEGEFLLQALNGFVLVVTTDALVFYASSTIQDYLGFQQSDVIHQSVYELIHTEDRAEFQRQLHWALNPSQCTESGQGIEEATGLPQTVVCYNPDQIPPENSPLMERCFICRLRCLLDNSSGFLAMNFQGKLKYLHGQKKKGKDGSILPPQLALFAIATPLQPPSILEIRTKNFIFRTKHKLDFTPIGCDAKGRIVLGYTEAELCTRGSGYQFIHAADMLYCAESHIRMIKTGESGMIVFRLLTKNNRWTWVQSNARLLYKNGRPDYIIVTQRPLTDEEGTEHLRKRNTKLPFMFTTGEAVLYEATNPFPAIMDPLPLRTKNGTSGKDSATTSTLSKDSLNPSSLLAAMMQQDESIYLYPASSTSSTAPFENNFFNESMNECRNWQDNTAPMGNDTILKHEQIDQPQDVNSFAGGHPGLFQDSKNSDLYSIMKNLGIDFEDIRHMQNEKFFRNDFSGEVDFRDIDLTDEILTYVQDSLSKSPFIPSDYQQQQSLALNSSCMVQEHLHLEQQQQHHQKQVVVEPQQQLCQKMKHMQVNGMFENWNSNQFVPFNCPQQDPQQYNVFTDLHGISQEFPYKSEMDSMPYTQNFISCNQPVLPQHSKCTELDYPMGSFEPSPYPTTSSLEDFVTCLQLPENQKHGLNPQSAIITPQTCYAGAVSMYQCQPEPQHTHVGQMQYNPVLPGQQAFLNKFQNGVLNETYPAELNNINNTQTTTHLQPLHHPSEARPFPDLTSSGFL
Excerpt: In Vitro XRE-Luciferase Reporter Assay (In Vitro Assay 1, 2, 3) AhR activation leads the induction of target gene expression such as CYP1A1 and CYPIB1 by AhR binding to AhR-responsive DNA elements also known as xenobiotics responsive elements (XREs). The assay for measuring AhR activity herein is the luciferase assay using cell lines transfected with luciferase reporter plasmid containing XREs at the upstream of the reporter gene. Cells transfected with XRE-luciferase reporter (XRE-Luc), plasmid drive luciferase activity reflecting activation and inhibition of AhR in the cells. […] Kynurenine (an endogenous AhR agonist), was used to stimulate cells to test antagonistic properties of the compounds. The half-maximal inhibitory concentration (IC50), or half-maximal effective concentration (EC50), value was calculated using nonlinear regression (four parameters), with Prism8.0 software (GraphPad).
In Vitro Assay 1: Antagonism in Human Cell Line
HepG2 (human hepatoma cell line) cell line with a XRE-luciferase reporter either transiently or stably (Invivogen) were plated in complete medium and incubated at 37° C. in a CO2 incubator. After 24 hours, cells were treated with kynurenine (50* or 200 μM) alone (negative control) or with test compounds for 6 hours. Luciferase activity was measured with a commercial kit such as the Promega Luciferase kit or Invivogen Luciferase kit. Relative luciferase activity (Firefly/Nano-Luc) was used to calculate IC50 values. […] (IC50 values are grouped as A, B, C and D, whereby A: IC50<0.01 μM; B: 0.01<IC50<0.1 μM; C: 0.1<IC50<1.0 μM; D: IC50>1.0 μM)

Row | Compound | IC50 [nM]
1 | O=C(CC(O)CO)N1CCN(c2cc(-c3ccc(Cl)cc3)nc(-c3cccnc3)n2)CC1 (stereo not shown) [Example 363, 1-(4-(6-(4-chlorophenyl)-2-(pyridin-3-yl)pyrimidin-4-yl)piperazin-1-yl)-3,4-dihydroxybutan-1-one] | < 10
2 | Cn1cc(-c2nc(-c3ccc(Cl)cc3)cc(N3CCN(S(=O)(=O)CCO)CC3)n2)cn1 [Example 348, 2-((4-(6-(4-chlorophenyl)-2-(1-methyl-1H-pyrazol-4-yl)pyrimidin-4-yl)piperazin-1-yl)sulfonyl)ethanol] | 10 to 100
3 | O=S(=O)(CC(O)CO)N1CCN(c2cc(-c3ccc(Cl)cc3)nc(-c3cccnc3)n2)CC1 (stereo not shown) [Example 369, 3-((4-(6-(4-chlorophenyl)-2-(pyridin-3-yl)pyrimidin-4-yl)piperazin-1-yl)sulfonyl)propane-1,2-diol] | 10 to 100
4 | Cn1cc(-c2nc(-c3ccc(Cl)cc3)cc(N3CCC(CO)(S(C)(=O)=O)CC3)n2)cn1 [Example 356, (1-(6-(4-chlorophenyl)-2-(1-methyl-1H-pyrazol-4-yl)pyrimidin-4-yl)-4-(methylsulfonyl)piperidin-4-yl)methanol] | 10 to 100
5 | CC1CN(c2ccc(-c3cc(N4CC[C@H](O)C4)nc(-c4cccnc4)n3)cn2)CC(C)O1 (stereo partly drawn) [Example 302, (3S)-1-(6-(6-(2,6-dimethylmorpholino)pyridin-3-yl)-2-(pyridin-3-yl)pyrimidin-4-yl)pyrrolidin-3-ol] | > 1000
6 | O=S(=O)(CCO)N1CCN(c2cc(-c3ccc(Cl)cc3O)nc(-c3cccnc3)n2)CC1 [Example 303, 5-chloro-2-(6-(4-((2-hydroxyethyl)sulfonyl)piperazin-1-yl)-2-(pyridin-3-yl)pyrimidin-4-yl)phenol] | < 10
7 | O[C@H]1CCN(c2cc(-c3ccc(Cl)cc3)nc(-c3ccncc3)n2)C1 [Example 324, (S)-1-(6-(4-chlorophenyl)-2-(pyridin-4-yl)pyrimidin-4-yl)pyrrolidin-3-ol] | > 1000
8 | O[C@H]1CCN(c2cc(-c3ccc(Cl)cc3)nc(-c3cccnc3F)n2)C1 [Example 346, (S)-1-(6-(4-chlorophenyl)-2-(2-fluoropyridin-3-yl)pyrimidin-4-yl)pyrrolidin-3-ol] | 10 to 100
9 | O[C@H]1CCN(c2cc(-c3ccc(Cl)cc3)nc(-c3cncnc3)n2)C1 [Example 344, (S)-1-(6-(4-chlorophenyl)-[2,5′-bipyrimidin]-4-yl)pyrrolidin-3-ol] | < 10
10 | CS(=O)(=O)C1(CO)CCN(c2cc(-c3ccc(Cl)cc3)nc(-c3cccnc3)n2)CC1 [Example 337, (1-(6-(4-chlorophenyl)-2-(pyridin-3-yl)pyrimidin-4-yl)-4-(methylsulfonyl)piperidin-4-yl)methanol] | < 10
11 | O=C(O)c1ccc(-c2cc(N3CCC(CO)CC3)nc(-c3cccnc3)n2)cc1 [Example 292, 4-(6-(4-(hydroxymethyl)piperidin-1-yl)-2-(pyridin-3-yl)pyrimidin-4-yl)benzoic acid] | > 1000
12 | CS(=O)(=O)C1(CO)CCN(c2cc(-c3ccc(C(F)(F)F)cc3)nc(-c3cccnc3)n2)CC1 [Example 351, (4-(methylsulfonyl)-1-(2-(pyridin-3-yl)-6-(4-(trifluoromethyl)phenyl)pyrimidin-4-yl)piperidin-4-yl)methanol] | > 1000

same assay, conditions: Assay 1: AhR-Luc Human Antagonism (IC50, nM), values marked *: kynurenine 50 μM, 6 hours

Row | Compound | IC50 [nM]
13 | O[C@H]1CCC[C@H]1Nc1cc(-c2ccc(Cl)cc2)nc(-c2cccnc2)n1 [Example 30, (1S,2R)-2-((6-(4-chlorophenyl)-2-(pyridin-3-yl)pyrimidin-4-yl)amino)cyclopentan-1-ol] | 10 to 100
14 | Clc1ccc(-c2cc(N3CCC4(C=Cc5ccccc54)CC3)nc(-c3cccnc3)n2)cc1 [Example 125, 1′-(6-(4-chlorophenyl)-2-(pyridin-3-yl)pyrimidin-4-yl)spiro[indene-1,4′-piperidine]] | 100 to 1000
15 | N#CC1CCN(c2cc(-c3ccc(Cl)cc3)nc(-c3cccnc3)n2)CC1 [Example 150, 1-(6-(4-chlorophenyl)-2-(pyridin-3-yl)pyrimidin-4-yl)piperidine-4-carbonitrile] | < 10
16 | Clc1ccc(-c2cc(N3CCN(c4cccc(Cl)c4Cl)CC3)nc(-c3cccnc3)n2)cc1 [Example 80, 4-(4-chlorophenyl)-6-(4-(2,3-dichlorophenyl)piperazin-1-yl)-2-(pyridin-3-yl)pyrimidine] | > 1000
17 | O[C@H]1CNC[C@H]1Nc1cc(-c2ccc(Cl)cc2)nc(-c2cccnc2)n1 [Example 134, (3S,4R)-4-((6-(4-chlorophenyl)-2-(pyridin-3-yl)pyrimidin-4-yl)amino)pyrrolidin-3-ol] | > 1000
18 | CCOC(=O)CC(=O)C1CCN(c2cc(-c3ccc(Cl)cc3)nc(-c3cccnc3)n2)CC1 [Example 160, ethyl 3-(1-(6-(4-chlorophenyl)-2-(pyridin-3-yl)pyrimidin-4-yl)piperidin-4-yl)-3-oxopropanoate] | > 1000
19 | OCCCNc1cc(-c2ccc(Cl)cc2)nc(-c2cccnc2)n1 [Example 7, 3-((6-(4-chlorophenyl)-2-(pyridin-3-yl)pyrimidin-4-yl)amino)propan-1-ol] | > 1000
20 | OC[C@@H]1CN(c2cc(-c3ccc(Cl)cc3)nc(-c3cccnc3)n2)CCN1 [Example 98, (S)-(4-(6-(4-chlorophenyl)-2-(pyridin-3-yl)pyrimidin-4-yl)piperazin-2-yl)methanol] | > 1000
21 | OC[C@H]1CCCN(c2cc(-c3ccc(Cl)cc3)nc(-c3cccnc3)n2)C1 [Example 148, (S)-(1-(6-(4-chlorophenyl)-2-(pyridin-3-yl)pyrimidin-4-yl)piperidin-3-yl)methanol] | 10 to 100
22 | Clc1ccc(-c2cc(N3CCCC3)nc(-c3cccnc3)n2)cc1 [Example 135, 4-(4-chlorophenyl)-2-(pyridin-3-yl)-6-(pyrrolidin-1-yl)pyrimidine] | 10 to 100
23 | C[C@@H](O)CNc1cc(-c2ccc(Cl)cc2)nc(-c2cccnc2)n1 [Example 9, (R)-1-((6-(4-chlorophenyl)-2-(pyridin-3-yl)pyrimidin-4-yl)amino)propan-2-ol] | 100 to 1000
24 | Clc1ccc(-c2cc(NCC3CCOCC3)nc(-c3cccnc3)n2)cc1 [Example 19, 6-(4-chlorophenyl)-2-(pyridin-3-yl)-N-((tetrahydro-2H-pyran-4-yl)methyl)pyrimidin-4-amine] | 100 to 1000
25 | Clc1ccc(-c2cc(NCCN3CCCCC3)nc(-c3cccnc3)n2)cc1 [Example 149, 6-(4-chlorophenyl)-N-(2-(piperidin-1-yl)ethyl)-2-(pyridin-3-yl)pyrimidin-4-amine] | > 1000
26 | C[C@@H]1CN(c2cc(-c3ccc(Cl)cc3)nc(-c3cccnc3)n2)[C@@H](C)CN1 (relative stereo) [Example 103, Trans-4-(4-chlorophenyl)-6-(2,5-dimethylpiperazin-1-yl)-2-(pyridin-3-yl)pyrimidine] | > 1000
27 | COC(=O)CN1CCC(Nc2cc(-c3ccc(Cl)cc3)nc(-c3cccnc3)n2)CC1 [Example 171, methyl 2-(4-((6-(4-chlorophenyl)-2-(pyridin-3-yl)pyrimidin-4-yl)amino)piperidin-1-yl)acetate] | 10 to 100
28 | OC1CCCN(c2cc(-c3ccc(Cl)cc3)nc(-c3cccnc3)n2)C1 (stereo not shown) [Example 39, 1-(6-(4-chlorophenyl)-2-(pyridin-3-yl)pyrimidin-4-yl)piperidin-3-ol] | 10 to 100
29 | CC1CCCN1c1cc(-c2ccc(Cl)cc2)nc(-c2cccnc2)n1 (stereo not shown) [Example 136, 4-(4-chlorophenyl)-6-(2-methylpyrrolidin-1-yl)-2-(pyridin-3-yl)pyrimidine] | 100 to 1000
30 | COc1ccccc1N1CCN(c2cc(-c3ccc(Cl)cc3)nc(-c3cccnc3)n2)CC1 [Example 83, 4-(4-chlorophenyl)-6-(4-(2-methoxyphenyl)piperazin-1-yl)-2-(pyridin-3-yl)pyrimidine] | 10 to 100
31 | NCC1CCN(c2cc(-c3ccc(Cl)cc3)nc(-c3cccnc3)n2)CC1 [Example 65, (1-(6-(4-chlorophenyl)-2-(pyridin-3-yl)pyrimidin-4-yl)piperidin-4-yl)methanamine] | 100 to 1000

Other lines, results leading:

Row | IC50 [nM] | Compound
32 | 100 to 1000 | CC[C@H](CO)Nc1cc(-c2ccc(Cl)cc2)nc(-c2cnn(C)c2)n1 [Example 188, (R)-2-((6-(4-chlorophenyl)-2-(1-methyl-1H-pyrazol-4-yl)pyrimidin-4-yl)amino)butan-1-ol]
33 | < 10 | O[C@H]1CCN(c2cc(-c3ccc(Cl)cc3)nc(-c3cccnc3)n2)C[C@@H]1F [Example 222, (3S,4S)-1-(6-(4-chlorophenyl)-2-(pyridin-3-yl)pyrimidin-4-yl)-3-fluoropiperidin-4-ol]

same assay, conditions: read-out: Assay 1: AhR-Luc Human Antagonism (IC50), values marked *: kynurenine 50 μM, 6 hours

Row | Compound | IC50 [nM]
34 | Cis-(4-((6-(4-chlorophenyl)-2-(pyridin-3-yl)pyrimidin-4-yl)amino)cyclohexyl)methanol [Example 215] | 10 to 100
